Usually IC50 stands for the concentration that gives 50% inhibition.

The source of these data is patent US10703755B2, “Substituted purine derivative” (SUMITOMO DAINIPPON PHARMA CO., LTD., priority 2016, dated 2020).

human TLR7, sequence (Q9NYK1 27-1049): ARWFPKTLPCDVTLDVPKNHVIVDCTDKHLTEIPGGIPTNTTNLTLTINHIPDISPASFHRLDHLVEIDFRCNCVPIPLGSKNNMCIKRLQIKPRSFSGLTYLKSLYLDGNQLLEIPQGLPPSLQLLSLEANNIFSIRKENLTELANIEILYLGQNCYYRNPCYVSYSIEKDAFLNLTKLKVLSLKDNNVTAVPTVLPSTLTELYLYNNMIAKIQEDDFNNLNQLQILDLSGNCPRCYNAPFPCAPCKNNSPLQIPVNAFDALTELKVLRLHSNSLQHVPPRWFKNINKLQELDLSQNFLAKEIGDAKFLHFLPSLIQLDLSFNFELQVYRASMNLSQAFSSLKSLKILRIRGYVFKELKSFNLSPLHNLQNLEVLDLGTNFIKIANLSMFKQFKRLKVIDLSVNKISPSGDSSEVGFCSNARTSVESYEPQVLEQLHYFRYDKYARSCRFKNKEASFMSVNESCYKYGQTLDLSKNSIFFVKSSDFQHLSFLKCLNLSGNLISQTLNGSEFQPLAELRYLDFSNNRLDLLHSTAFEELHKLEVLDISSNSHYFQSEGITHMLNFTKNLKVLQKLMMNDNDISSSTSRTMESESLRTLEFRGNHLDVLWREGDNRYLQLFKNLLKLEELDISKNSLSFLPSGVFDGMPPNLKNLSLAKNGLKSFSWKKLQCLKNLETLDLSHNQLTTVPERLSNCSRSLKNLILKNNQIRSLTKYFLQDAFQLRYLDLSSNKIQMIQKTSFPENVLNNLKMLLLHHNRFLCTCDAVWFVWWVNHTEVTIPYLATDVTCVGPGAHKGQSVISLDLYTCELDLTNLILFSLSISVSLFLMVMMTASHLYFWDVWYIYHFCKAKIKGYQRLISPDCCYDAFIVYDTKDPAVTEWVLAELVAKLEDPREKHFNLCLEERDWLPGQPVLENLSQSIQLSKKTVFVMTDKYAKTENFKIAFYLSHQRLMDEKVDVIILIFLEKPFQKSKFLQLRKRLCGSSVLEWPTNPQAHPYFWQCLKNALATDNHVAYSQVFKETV

The first assay addresses human TLR7 (Homo sapiens (Human), UniProt Q9NYK1). Kind of assay: Test for evaluating the inhibition of the activation of human TLR7 (SEAP reporter, TLR7/NF-κB/SEAPorter HEK293 cell). The format is cell-based. Particulars: R-848 200 nmol/L, SEAP activity, result in words. The method, boiled down: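 The readout is secreted alkaline phosphatase under NF-κB response-element control in TLR7/NF-κB/SEAPorter HEK293 cells, which stably express full-length human TLR7. Cells were plated at 5×10^4 per well and grown overnight at 37° C, 5% CO2, in DMEM/10% FBS/blasticidin.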
Turning to `CCOc1nc(N)c2nc(-c3cncc(F)c3)n(Cc3ccc(C4CCN(C(=O)CN(C)C)CC4)cc3)c2n1` [Example 148, 1-[4-(4-{[6-Amino-2-ethoxy-8-(5-fluoropyridin-3-yl)-9H-purin-9-yl]methyl}phenyl)piperidin-1-yl]-2-(dimethylamino)ethanone], the “inhibitory effect against TLR7 in the test for evaluating inhibition of the activation of TLR7” value (from here on “inhibitory effect against TLR7”) was “potent inhibitory effect against TLR7”.
Regarding `COc1nc(N)c2nc(-c3cncc(F)c3)n(Cc3ccc(CN4C[C@@H]5C[C@H]4CN5C)cc3)c2n1` [Example 161], the “inhibitory effect against TLR7” value is on record as “potent inhibitory effect against TLR7”.
Take `COc1nc(C)c2nc(-c3cncc(F)c3)n(Cc3ccc(C4CN5CCC4CC5)cc3)c2n1` (stereo not drawn) [Example 165, 9-[4-(1-Azabicyclo[2.2.2]oct-3-yl)benzyl]-8-(5-fluoropyridin-3-yl)-2-methoxy-6-methyl-9H-purine]: the “inhibitory effect against TLR7” value is “potent inhibitory effect against TLR7”.
On to `CCOc1nc(C)c2nc(-c3cncc(F)c3)n(Cc3cnn(C4CCN(C)CC4)c3)c2n1` [Example 166], for which the “inhibitory effect against TLR7” value is on record as “potent inhibitory effect against TLR7”.
Take `CCOc1nc(C)c2nc(-c3cncc(F)c3)n(Cc3ccc(C4CN5CCC4CC5)cc3F)c2n1` (stereo not drawn) [Example 172]: the “inhibitory effect against TLR7” value is on record as “potent inhibitory effect against TLR7”.
Same read-out and setting: the value for `CCOc1nc(C)c2nc(-c3cncc(F)c3)n(Cc3ccc(CN4CCN5CC[C@@H]4C5)cc3)c2n1` [Example 174, 9-{4-[(5R)-1,4-diazabicyclo[3.2.1]oct-4-ylmethyl]benzyl}-2-ethoxy-8-(5-fluoropyridin-3-yl)-6-methyl-9H-purine] was “potent inhibitory effect against TLR7”; that for `CCOc1nc(N)c2nc(-c3cncc(F)c3)n(Cc3ccc([C@H]4CN5CCC4CC5)cc3)c2n1` [Example 176, 9-{4-[(3S)-1-azabicyclo[2.2.2]oct-3-yl]benzyl}-2-ethoxy-8-(5-fluoropyridin-3-yl)-9H-purine-6-amine] was “potent inhibitory effect against TLR7”; that for `COc1nc(C)c2nc(-c3cncc(F)c3)n(Cc3ccc(CN(C)C)cc3F)c2n1` [Example 259, 1-(3-fluoro-4-{[8-(5-fluoropyridin-3-yl)-2-methoxy-6-methyl-9H-purin-9-yl]methyl}phenyl)-N,N-dimethylmethanamine] was “potent inhibitory effect against TLR7”.
As to `COc1nc(C)c2nc(-c3cncc(F)c3)n(Cc3ccc(CN4CCC4)cc3F)c2n1` [Example 260, 9-[4-(azetidin-1-ylmethyl)-2-fluorobenzyl]-8-(5-fluoropyridin-3-yl)-2-methoxy-6-methyl-9H-purine], the “inhibitory effect against TLR7” value is given as “potent inhibitory effect against TLR7”.
`CCOc1nc(C)c2nc(-c3cncc(F)c3)n(Cc3ccc(CN4CCN(C)CC4)cc3)c2n1` [Example 262]: the “inhibitory effect against TLR7” value was “potent inhibitory effect against TLR7”.

Staying with this assay, now noted: R-848 200 nmol/L, SEAP reporter.
Consider `CCCCOc1nc(C)c2nc(-c3cncc(OC)c3)n(Cc3ccccc3)c2n1` [Example 142], for which the IC50 was found to be 6600 nM. That is a single-digit micromolar value.
For the compound `CCOc1nc(N)c2nc(-c3cncc(F)c3)n(Cc3ccc(C(=O)N4CCN(C)CC4)cc3)c2n1` [Example 143, (4-{[6-Amino-2-ethoxy-8-(5-fluoropyridin-3-yl)-9H-purin-9-yl]methyl}phenyl) (4-methylpiperazin-1-yl)methanone], the IC50 turned out to be 1570 nM.
Compound `CCOc1nc(N)c2nc(-c3cncc(F)c3)n(Cc3ccc(C(=O)N4CCC(C)CC4)cc3)c2n1` [Example 144] returned an IC50 of 2600 nM.
For the compound `CCOc1nc(N)c2nc(-c3cncc(F)c3)n(Cc3ccc(C(=O)NCCN(C)C)cc3)c2n1` [Example 145], the midpoint of inhibition, the IC50, lay at 2100 nM. The IC50 values of the last two compounds are within 1.5-fold of each other.
In the case of `CCOc1nc(N)c2nc(-c3cncc(F)c3)n(Cc3ccc(C(=O)NCCN4CCCC4)cc3)c2n1` [Example 146], inhibition was half-maximal at 1700 nM (IC50). This IC50 and that of the compound before are within 1.5-fold of each other.
`CCCCOc1nc(N)c2nc(-c3cncc(F)c3)n(Cc3cccc(C(=O)N4CCN(C)CC4)c3)c2n1` [Example 147]: the IC50 was 3500 nM.
Still for that read-out and setting: the value for `CCOc1nc(N)c2nc(-c3cncc(F)c3)n(Cc3ccc(C4CCN(C(=O)CN(C)C)CC4)cc3)c2n1` [Example 148, 1-[4-(4-{[6-Amino-2-ethoxy-8-(5-fluoropyridin-3-yl)-9H-purin-9-yl]methyl}phenyl)piperidin-1-yl]-2-(dimethylamino)ethanone] was 16 nM; that for `COc1nc(N)c2nc(-c3cncc(F)c3)n(Cc3ccc(CN(C)C)cc3)c2n1` [Example 150] was 500 nM.
Compound `CN(C)Cc1ccc(Cn2c(-c3cncc(F)c3)nc3c(N)nc(OC4CCOCC4)nc32)cc1` [Example 151] showed a 50% inhibitory concentration (IC50) of 16600 nM.
On to `CN(C)Cc1ccc(Cn2c(-c3cncc(F)c3)nc3c(N)nc(OCC4CCOCC4)nc32)cc1` [Example 152], for which the 50% inhibitory concentration (IC50) worked out at 2900 nM. Against the preceding compound, the IC50 is about 5.7-fold lower.
As to `CN(C)Cc1ccc(Cn2c(-c3cncc(F)c3)nc3c(N)nc(N4CCC4)nc32)cc1` [Example 153], the half-inhibitory concentration (IC50) is 5800 nM. This IC50 lies about 2-fold higher than the previous one.
As for `CCCCNc1nc(N)c2nc(-c3cncc(F)c3)n(Cc3ccc(CN(C)C)cc3)c2n1` [Example 154], half-maximal inhibition (IC50) required 13600 nM.
`CCCCN(C)c1nc(N)c2nc(-c3cncc(F)c3)n(Cc3ccc(CN(C)C)cc3)c2n1` [Example 155]: half-maximal inhibition (IC50) was put at 8100 nM.
The compound `Cc1nc(N)c2nc(-c3cncc(F)c3)n(Cc3ccc(CN(C)C)cc3)c2n1` [Example 156, 9-{4-[(Dimethylamino)methyl]benzyl}-8-(5-fluoropyridin-3-yl)-2-methyl-9H-purine-6-amine] displayed an IC50 of 5000 nM.
`CCc1nc(N)c2nc(-c3cncc(F)c3)n(Cc3ccc(CN(C)C)cc3)c2n1` [Example 157] had an IC50 of 8900 nM.
Same read-out and setting: the value for `COCC(C)Oc1nc(N)c2nc(-c3cncc(F)c3)n(Cc3ccc(CN(C)C)cc3)c2n1` (stereo not drawn) [Example 158, 9-{4-[(Dimethylamino)methyl]benzyl}-8-(5-fluoropyridin-3-yl)-2-[(1-methoxypropan-2-yl)oxy]-9H-purine-6-amine] was 13700 nM.
For `CN(C)Cc1ccc(Cn2c(-c3cncc(F)c3)nc3c(N)nc(OCC(F)F)nc32)cc1` [Example 159], the midpoint of inhibition, the IC50, lay at 930 nM.
`CN(C)Cc1ccc(Cn2c(-c3cncc(F)c3)nc3c(N)nc(OCC4CC4)nc32)cc1` [Example 160]: half-maximal inhibition (IC50) required 1300 nM.
On to `COc1nc(N)c2nc(-c3cncc(F)c3)n(Cc3ccc(CN4C[C@@H]5C[C@H]4CN5C)cc3)c2n1` [Example 161], for which the IC50 was found to be 28 nM.
Regarding `CCCOc1nc(N)c2nc(-c3cncc(F)c3)n(Cc3ccc(CN(C)C)cc3)c2n1` [Example 162], inhibition was half-maximal at 210 nM (IC50).
On the same count and under the same terms, the same measure for `CCOc1nc(C)c2nc(-c3cncc(F)c3)n(Cc3cnn(C4CCN(C)C4)c3)c2n1` (stereo not drawn) [Example 164]: 170 nM.
With `COc1nc(C)c2nc(-c3cncc(F)c3)n(Cc3ccc(C4CN5CCC4CC5)cc3)c2n1` (stereo not drawn) [Example 165, 9-[4-(1-Azabicyclo[2.2.2]oct-3-yl)benzyl]-8-(5-fluoropyridin-3-yl)-2-methoxy-6-methyl-9H-purine], the IC50 was 16 nM. This IC50 lies about 11-fold lower than the previous one.
Compound `CCOc1nc(C)c2nc(-c3cncc(F)c3)n(Cc3cnn(C4CCN(C)CC4)c3)c2n1` [Example 166] returned a half-inhibitory concentration (IC50) of 50 nM.
On to `CCOc1nc(C)c2nc(-c3cncc(F)c3)n(Cc3cnn(C4CN5CCC4CC5)c3)c2n1` (stereo not drawn) [Example 167], for which the half-inhibitory concentration (IC50) was 110 nM. This IC50 lies about 2.2-fold higher than the previous one.
On the same count and under the same terms, the value for `CCOc1nc(C)c2nc(-c3cncc(F)c3)n(Cc3cccnc3)c2n1` [Example 168] was 1400 nM; that for `CCOc1nc(C)c2nc(-c3cncc(F)c3)n(Cc3ccc(C4CCCN4C)cc3)c2n1` (stereo not drawn) [Example 170] was 82 nM.
The compound `CCOc1nc(C)c2nc(-c3cncc(F)c3)n(Cc3ccc(C4CN5CCC4CC5)cc3F)c2n1` (stereo not drawn) [Example 172] displayed a concentration for half-maximal inhibition (IC50) of 3 nM. Compared with the last compound, the IC50 is about 27-fold lower.
`CCOc1nc(C)c2nc(-c3cncc(F)c3)n(Cc3ccc(CN4CCN5CC[C@@H]4C5)cc3)c2n1` [Example 174, 9-{4-[(5R)-1,4-diazabicyclo[3.2.1]oct-4-ylmethyl]benzyl}-2-ethoxy-8-(5-fluoropyridin-3-yl)-6-methyl-9H-purine] returned an IC50 of 26 nM.
The same measure, in the same setting: the same measure for `CCOc1nc(N)c2nc(-c3cncc(F)c3)n(Cc3ccc([C@@H]4CN5CCC4CC5)cc3)c2n1` [Example 175, 9-{4-[(3R)-1-Azabicyclo[2.2.2]oct-3-yl]benzyl}-2-ethoxy-8-(5-fluoropyridin-3-yl)-9H-purine-6-amine]: 94 nM.
`CCOc1nc(N)c2nc(-c3cncc(F)c3)n(Cc3ccc([C@H]4CN5CCC4CC5)cc3)c2n1` [Example 176, 9-{4-[(3S)-1-azabicyclo[2.2.2]oct-3-yl]benzyl}-2-ethoxy-8-(5-fluoropyridin-3-yl)-9H-purine-6-amine] came in with a 50% inhibitory concentration (IC50) of 11 nM. Against the preceding compound, the IC50 is about 8.5-fold lower.
`COc1nc(C)c2nc(-c3cncc(F)c3)n(Cc3ccc([C@@H]4CN5CCC4CC5)cc3)c2n1` [Example 177, 9-{4-[(3R)-1-Azabicyclo[2.2.2]oct-3-yl]benzyl}-8-(5-fluoropyridin-3-yl)-2-methoxy-6-methyl-9H-purine] displayed an IC50 of 10 nM.
For `CCCCOc1nc(N)c2nc(-c3ccc(N(C)C)cc3)n(Cc3ccccc3)c2n1` [Example 179], the half-maximal inhibitory concentration (IC50) amounted to 16200 nM.
Turning to `COCCOc1nc(N)c2nc(-c3cncc(S(C)(=O)=O)c3)n(Cc3ccc(CN(C)C)cc3)c2n1` [Example 181], the IC50 turned out to be 19700 nM. This IC50 and that of the compound before are within 1.5-fold of each other.
In turn, `CCOc1nc(N)c2nc(-c3cncc(F)c3)n(Cc3cccc(C#N)c3)c2n1` [Example 237] gave an IC50 of 2020 nM.
As to `CCOc1nc(N)c2nc(-c3cncc(F)c3)n(Cc3cc(F)ccc3F)c2n1` [Example 240], it took 357 nM to reach half-maximal inhibition (IC50).
The same measure, in the same setting: the same measure for `COc1nc(C)c2nc(-c3cncc(F)c3)n(Cc3cnn(C)c3)c2n1` [Example 243]: 2660 nM; for `CCOc1nc(C)c2nc(-c3cncc(F)c3)n(Cc3cnn(CCN(C)C)c3)c2n1` [Example 244]: 445 nM; for `CCOc1nc(C)c2nc(-c3cncc(F)c3)n(Cc3cnn(CCCN(C)C)c3)c2n1` [Example 245]: 198 nM.
In turn, `CCOc1nc(C)c2nc(-c3cncc(F)c3)n(Cc3cnn(CCN4CCCC4)c3)c2n1` [Example 246] yielded an IC50 of 300 nM.
The same measure, in the same setting: the same measure for `CCOc1nc(C)c2nc(-c3cncc(F)c3)n(Cc3cnn(CCCN4CCCC4)c3)c2n1` [Example 247]: 85 nM; for `CCOc1nc(C)c2nc(-c3cncc(F)c3)n(Cc3cnn(CCN4CCOCC4)c3)c2n1` [Example 248]: 248 nM.
In turn, `CCOc1nc(C)c2nc(-c3cncc(F)c3)n(Cc3cnn(CCCN4CCOCC4)c3)c2n1` [Example 249] displayed an IC50 of 100 nM.
`COc1nc(C)c2nc(-c3cncc(F)c3)n(Cc3cnn(CCN(C)C)c3)c2n1` [Example 250] displayed a half-inhibitory concentration (IC50) of 200 nM.
`COc1nc(C)c2nc(-c3cncc(F)c3)n(Cc3cnn(CCCN(C)C)c3)c2n1` [Example 251] came in with a concentration for half-maximal inhibition (IC50) of 180 nM. This IC50 and that of the compound before are within 1.5-fold of each other.
On the same count and under the same terms, the same measure for `COc1nc(C)c2nc(-c3cncc(F)c3)n(Cc3ccc(CO)cc3F)c2n1` [Example 258]: 169 nM; for `COc1nc(C)c2nc(-c3cncc(F)c3)n(Cc3ccc(CN(C)C)cc3F)c2n1` [Example 259, 1-(3-fluoro-4-{[8-(5-fluoropyridin-3-yl)-2-methoxy-6-methyl-9H-purin-9-yl]methyl}phenyl)-N,N-dimethylmethanamine]: 28 nM; for `COc1nc(C)c2nc(-c3cncc(F)c3)n(Cc3ccc(CN4CCC4)cc3F)c2n1` [Example 260, 9-[4-(azetidin-1-ylmethyl)-2-fluorobenzyl]-8-(5-fluoropyridin-3-yl)-2-methoxy-6-methyl-9H-purine]: 18 nM.
Regarding `CCOC1CN(Cc2ccc(Cn3c(-c4cncc(F)c4)nc4c(C)nc(OC)nc43)c(F)c2)C1` [Example 261], half-maximal inhibition (IC50) required 1160 nM. This IC50 is about 64-fold higher than that of the compound before.
Consider `CCOc1nc(C)c2nc(-c3cncc(F)c3)n(Cc3ccc(CN4CCN(C)CC4)cc3)c2n1` [Example 262], for which the IC50 amounted to 27 nM.
The compound `CCOc1nc(C)c2nc(-c3cncc(F)c3)n(Cc3ccc(CN4CCCC4)cc3)c2n1` [Example 263] came in with a half-inhibitory concentration (IC50) of 102 nM.
